{
  "source": "BindingDB's records for doi:10.1002/cbic.200900108",
  "about": "(University of British Columbia, 2009)",
  "data": [
    {"molecular_target": "T1, Trans-sialidase (Trypanosoma cruzi, UniProt Q26966)", "T1 sequence (Q26966 whole entry)": "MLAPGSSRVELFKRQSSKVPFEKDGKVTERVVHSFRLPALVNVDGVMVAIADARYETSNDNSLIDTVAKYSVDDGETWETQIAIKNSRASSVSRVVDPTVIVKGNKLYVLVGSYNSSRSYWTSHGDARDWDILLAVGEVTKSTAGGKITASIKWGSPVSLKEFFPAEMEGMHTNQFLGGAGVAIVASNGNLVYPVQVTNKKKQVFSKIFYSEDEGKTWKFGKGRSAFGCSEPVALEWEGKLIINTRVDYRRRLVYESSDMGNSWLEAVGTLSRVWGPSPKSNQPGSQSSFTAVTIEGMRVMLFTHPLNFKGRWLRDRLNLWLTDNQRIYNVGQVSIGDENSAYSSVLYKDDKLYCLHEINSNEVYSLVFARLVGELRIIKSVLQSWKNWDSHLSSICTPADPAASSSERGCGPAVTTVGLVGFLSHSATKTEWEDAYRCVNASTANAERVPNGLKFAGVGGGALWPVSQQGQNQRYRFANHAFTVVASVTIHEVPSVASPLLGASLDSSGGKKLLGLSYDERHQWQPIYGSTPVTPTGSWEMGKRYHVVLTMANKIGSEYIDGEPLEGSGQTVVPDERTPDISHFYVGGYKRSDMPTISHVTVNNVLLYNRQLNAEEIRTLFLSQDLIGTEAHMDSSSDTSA", "assay": "Inhibition Assay", "settings": "pH 7.6; 35 °C", "source_text": "Inhibition assay using trans-sialidase, a membrane-associated protein.", "units": {"IC50": "µM", "Ki": "µM"}, "values": [
      {"smiles": "Cc1ccc(S(=O)(=O)Nc2cccc(C(=O)/C=C/c3ccc(O)c(O)c3)c2)cc1", "IC50": 2.5, "Ki": 3.7},
      {"smiles": "Cc1ccc(S(=O)(=O)Nc2ccc(C(=O)/C=C/c3ccc(O)cc3)cc2)cc1", "IC50": 73},
      {"smiles": "Cc1ccc(S(=O)(=O)Nc2ccc(C(=O)/C=C/c3ccc(O)c(O)c3)cc2)cc1", "IC50": 0.9, "Ki": 4.6},
      {"smiles": "Cc1ccc(S(=O)(=O)N2c3ccccc3C(=O)/C(=C/c3ccc(O)cc3)C2c2ccc(O)cc2)cc1", "note": "(centres undefined) [Quinolinone derivative, 8]", "IC50": 30},
      {"smiles": "Cc1ccc(S(=O)(=O)N2c3ccccc3C(=O)/C(=C/c3ccc(O)c(O)c3)C2c2ccc(O)c(O)c2)cc1", "note": "(centres undefined) [Quinolinone derivative, 9]", "IC50": 0.6, "Ki": 0.4},
      {"smiles": "Cc1ccc(S(=O)(=O)Nc2cccc(C(=O)/C=C/c3ccc(O)cc3)c2)cc1", "note": "[Sulfonamide chalcone, 6]", "IC50": 37}
    ]}
  ]
}
